Assay results reported in patent EP1733758A1, “Methods for administration of a farnesyl dibenzodiazepinone” (Ecopia Biosciences Inc., priority 2005, dated 2006).

Legend:
tumor cell lines = experiment: In vitro activity against tumor cell lines (average); type: cell-based
[1] = Pharmacokinetics of 14-day continuous intravenous infusion in rats; type: in vivo, Sprague-Dawley rats; conditions: for steady-state plasma concentration / Css / T½z: 14-day CIV; for Css: average of plasma concentration between 30h and 14 days; for T½z: calculated at the end of treatment
Method: (§1) Sprague-Dawley rats received an intravenous continuous infusion over 14 days of Formula I at 25 mg/kg/day, 50 mg/kg/day, or 75 mg/kg/day at a rate of 2 mL/kg/h for 14 consecutive days (same formulation as in Example 7). Blood was collected from the jugular vein in tubes containing K2 EDTA from 3 rats/sex/group at the following time points: 2, 6, and 12 hours after the start of dosing on Day 1, on Day 2 at 6 hours (approximately 30 hours after the start of dosing), on Days 6 and 10 at 6 hours, and on Day 15, 1 hour prior the end of dosing, and then at 5 min, 15 min, 30 min, 1 h, and 2 h after the end of dosing.

[2] = Maximum tolerated dose and tolerability of bolus administration in mice; type: in vivo; conditions: for MTD: mouse, in vivo
[3] = Toxicity of 14-day continuous intravenous infusion in rats; type: in vivo; conditions: 14-day infusion, all treated and control groups, toxicity was due to the vehicle
Method: as §1
The toxicity was due to the vehicle and was attributed to smaller size of infusion vessels, and concurrent catheter tract infection.

[4] = Pharmacokinetics and tissue distribution after bolus IV, IP, SC and PO administration in mice; type: in vivo, female Crl: CD1 mice; conditions: daily bolus administrations of 30 mg/kg (SC) or 20 mg/kg (IP)
[5] = system: P388 murine leukemia cells; experiment: Murine P388 leukemia survival model; type: in vivo
Method: Formulation: The compound of Formula I is first dissolved in 1 volume of 90% propylene glycol (PG). This is followed by the addition of 2 volumes of 45% polyethylene glycol 400 (PEG 400). The volume ratio of PEG 400/PG/water is respectively 30:30:40. Compound is injected in a volume of 10 mL/kg.
DBA/2 female mice (6 weeks of age) were injected intraperitoneally (IP) with 1 x 10^6 P388 murine leukemia cells (day 0). Mice were randomized in 4 groups (10 mice per group) at Day 1 and treated with the following dose and schedule. Group 1: IV injection of vehicle (PEG/PG formulation) on D1 and D8, daily IP administration of vehicle from D2 to D7 and from D9 to D10 Group 2: IV injection of the compound of Formula I in PEG-PG formulation at 50 mg/kg on D1 followed by daily IP administration of the compound of Formula I in PEG-PG formulation at 10 mg/kg from D2 to D4 and from D6 to D12 Group 3: Daily IP administration of the compound of Formula I in PEG-PG formulation at 10 mg/kg from D1 to D4 and from D8 to D14
Mice body weights were recorded twice a week. Lethality and behaviour of animals were recorded every day. All vehicle control mice died between D8 to D10 from peritoneal carcinomatosis associated with ascites. Three (3) mice from group 2 died one day after treatment due to formulation toxicity. The remaining seven (7) died between days 8 and 12. Mice from group 3 died between days 8 and 12. The results are expressed as percent of mean survival time of treated animals over the mean survival time of the control group (treated vs control, T/C%) and as increase life span (mean survival time of treated animals minus that of control animals over the mean survival time of the control group; ILS%).

[6] = Population pharmacokinetic analysis (NONMEM), monkey; type: in vivo; conditions: for clearance: monkey, plasma, intravenous; for clearance / mean steady-state plasma concentration: monkeys, 14-day continuous infusion
Method: (§2) An analysis was performed to derive allometric equations for Formula I pharmacokinetic parameters using Formula I plasma concentration-time data from three species, including mouse, rat, and monkey, and to estimate human pharmacokinetic parameters from those allometric equations.
(§3) Plasma concentrations of Formula I were obtained from mice, rats, and monkeys following intravenous injection or continuous infusion. Formula I pharmacokinetic parameters in mice, rats, and monkeys were estimated using population pharmacokinetic analysis, a function of the software program NONMEM™ (version 5). Typical population pharmacokinetic parameters for Formula I in humans were extrapolated from allometric equations that were derived from pharmacokinetic parameters estimated in the three animal species.
(§4) A two-compartment model with a first-order elimination from the central compartment adequately described Formula I plasma concentration-time profiles following intravenous bolus injection (30 mg/kg) in mice and rats, 7-day continuous infusion in rats (50 to 170 mg/kg/day), and 14-day continuous infusion in monkeys (5 to 30 mg/kg/day).
Application of a two-compartment model with Michaelis-Menten elimination better described the concentration data in monkeys than the linear model. Because the target concentration in humans is 2 µM, at which linear pharmacokinetics is assumed, all simulations for human plasma concentrations were performed based on a two-compartment model with linear first-order elimination.

[7] = Population pharmacokinetic analysis (NONMEM), rat; type: in vivo; conditions: Rat (IV+CIV)
Method: as §2, §3, §4

[8] = Grp 2: IV 50 mg/kg (D1), IP 10 mg/kg (D2-4 & D6-12)
[9] = Grp 3: IP 10 mg/kg (D1-4 & D8-14)
[10] = Monkey (CIV), typical population PK parameter
[11] = 5 mg/kg/day (Example 9 analysis)
[12] = 15 mg/kg/day (Example 9 analysis)
[13] = 30 mg/kg/day (Example 9 analysis)
[14] = typical population PK parameter

CC(C)=CCC/C(C)=C/CC/C(C)=C/CN1C(=O)c2cccc(O)c2Nc2c(O)cc(O)cc21 [Formula I, 10-farnesyl-4,6,8-trihydroxy-dibenzodiazepin-11-one]
IC50 (tumor cell lines): ≥ 1000 nM
steady-state plasma concentrations ([1]; 14-day CIV at doses of 50 and 75 mg/kg/day, above therapeutic threshold): > 2 µM
steady-state plasma concentration ([1]; 25 mg/kg/day): ~0.8 µM
Css ([1]; 25 mg/kg/day): 347 ng/mL
T½z ([1]; 25 mg/kg/day): 1.6 h
steady-state plasma concentration ([1]; 50 mg/kg/day): ~2.5 µM
Css ([1]; 50 mg/kg/day): 1,150 ng/mL
T½z ([1]; 50 mg/kg/day): 1.2 h
steady-state plasma concentration ([1]; 75 mg/kg/day): ~3.9 µM
Css ([1]; 75 mg/kg/day): 1,796 ng/mL
T½z ([1]; 75 mg/kg/day): 1.2 h
plasma concentration ([1]; CIV 50 mg/kg/day, Day 10 (unusually high)): 1,753 ng/mL
tolerability finding ([2]; IP bolus dosing): some intestinal occlusion
tolerability finding ([2]; SC bolus dosing): swelling and thickening of the skin
MTD ([2]; IP bolus): 20 mg/kg
MTD ([2]; IV bolus): 200 mg/kg
MTD ([2]; SC bolus): 30 mg/kg
infusion site findings [3]: necrotization and inflammatory lesions at the site of infusion
sustained plasma concentrations [4]: 1 to 2 µM
% ILS [5, 8]: 33%
%T/C [5, 8]: 133.3%
Mean Survival Days ± SD [5, 8]: 11 ± 1.5 days
Median survival [5, 8]: 12
% ILS [5, 9]: 38.9%
%T/C [5, 9]: 138.9%
Mean Survival Days ± SD [5, 9]: 12.6 ± 4.9 days
Median survival [5, 9]: 12.5
mice died one day after treatment due to formulation toxicity ([5]; group 2 (10 mice), IV 50 mg/kg in PEG-PG formulation on D1): 3 mice
Q ([6]; Monkey (CIV), WT 3.8 Kg): 0.151 L/h
V1 ([6]; Monkey (CIV), WT 3.8 Kg): 0.771 L
V2 ([6]; Monkey (CIV), WT 3.8 Kg): 1.59 L
Ke [6, 10]: 2.172 h⁻¹
Q [6, 10]: 0.663 mL/min/kg
V1 [6, 10]: 0.203 L/kg
V2 [6, 10]: 0.419 L/kg
clearance [6, 11]: 10.5 mL/min/kg
clearance [6, 12]: 9.5 mL/min/kg
clearance [6, 13]: 3.83 mL/min/kg
mean steady-state plasma concentration [6, 11]: 0.75 µM
mean steady-state plasma concentration [6, 12]: 2.57 µM
mean steady-state plasma concentration [6, 13]: 14.07 µM
Q ([7]; WT 0.225 Kg): 0.016 L/h
V1 ([7]; WT 0.225 Kg): 0.028 L
V2 ([7]; WT 0.225 Kg): 0.053 L
Ke [7, 14]: 8.651 h⁻¹
Q [7, 14]: 1.16 mL/min/kg
V1 [7, 14]: 0.126 L/kg
V2 [7, 14]: 0.236 L/kg
